Test results published in patent US20180116213A1 (priority 2015, published 2018).

Legend:
[1] = tested on: leaf discs of the common lawn weed Plantiago major; test: Leaf disc bioassay, Plantiago major leaf discs; set-up: key to necrosis and chlorosis 18 HAT / necrosis and chlorosis 36 HAT: 0: no damage; +: minor damages; ++: severe damages on up to 50% of leave surface; +++: damages on more than 50% of leave surface; ++++: 100% damage
Text: (§1) The plants and leaves were visually assessed for damages by necrosis and chlorosis with the following scale for evaluation: • 0: no damage • +: minor damages • ++: severe damages on up to 50% of leave surface • +++: damages on more than 50% of leave surface • ++++: 100% damage
5 mm discs were cut from leaves of plants from Plantiago major, Sesamum indicum, Aegopodium potagraria and Chelidonium majus using a paper punch (5 mm). 3 leaf discs of 5 mm Ø were placed in each well of 12-well microtiter plates. Each well containing 2 ml deionized H2O, or solutions of various concentrations of glyphosate, 2,4-D or synergistic mixtures (M). The plates were incubated under continuous light at 20° C. for the listed times. The leaf discs were visually assessed for chlorosis and necrosis at various times after treatment according to the scale for classification. The visual rating utilized a rating scale from 0 to ++++, where 0=no damage by necrosis/chlorosis, and ++++=total damage by chlorosis/necrosis (see Literature).
3 leaf discs of 5 mm Ø were placed in each well of 12-well microtiter plates. Each well containing 2 ml deionized H2O, or solutions of various concentrations of 2,4-D or synergistic mixture M4 with a 1:1 mixture of citric acid and SDS. The plates were incubated under continuous light at 20° C. for the listed times. The leaf discs were visually assessed for chlorosis and necrosis according to the scale for classification and listed for hours after treatment (HAT). The visual rating utilized a rating scale from 0 to ++++, where 0=no damage by necrosis/chlorosis, and ++++=total damage by chlorosis/necrosis.

plant leaves = test: Different tests (leaf disc bioassays, growth chamber trials, field trials), summary; settings: herbicide alone at a concentration of 0.1% to 0.25%
Description: The activity of the synergistic mixtures to enhance the efficacy of herbicides was tested in vitro by leaf disc bioassays, in growth chamber trials with seedlings and in field trials with various different weed species.
as §1

[2] = application rate 0.1 % of volume
[3] = application rate 0.25 % of volume
[4] = application rate 0.5 % of volume

In the case of O=C(O)COc1ccc(Cl)cc1Cl [2,4-D, 2,4-dichlorophenoxyacetic acid], the “necrosis and chlorosis 18 HAT” value [1, 2] was 0, the “necrosis and chlorosis 36 HAT” value [1, 2] was 0 and the “necrosis and chlorosis 18 HAT” value [1, 3] was 0. For the same molecule, the “necrosis and chlorosis 36 HAT” value [1, 3] was 0, the “necrosis and chlorosis 18 HAT” value [1, 4] was 0 and the “necrosis and chlorosis 36 HAT” value [1, 4] was 0. For the same molecule, the “damage of the leaf discs” value ([1]; substance alone, conditions of Table 4) was “do not show efficient damage” and the “damage of plant leaves” value (plant leaves) was “did not show any significant damage”.
